The record followed here is US20260152497A1, “MIDAZO[4,5-c]QUINOLINE-4-AMINE COMPOUNDS AND CONJUGATES THEREOF, THEIR PREPARATION, AND THEIR [sequence] APPLICATIONS” (SANOFI, priority 2021, published 2026).

The test system of the assay is human MKN-45 tumor cells. As to the kind of experiment: Incucyte Immune Cell Killing Assay, co-culture of human PBMC and NucLight red-labelled MKN-45 tumor cells. Format: cell-based. Particulars: 10 nM, 120-hour incubation, PBMC + MKN-45 co-culture. How it is done: The conjugates according to the disclosure were subjected to pharmacological testing for determining their tumor cell killing activity via immune cell activation.
The below tests involving measuring the in vitro tumor cell killing activity of some compounds of the disclosure were carried out using Incucyte® Immune Cell Killing Assay consisting in co-culture of human peripheral blood mononuclear cells (PBMC) and NucLight red-labelled human MKN-45 tumor cells. This Immune Cell Killing Assay allows for direct, measurements of immune cell-mediated killing of MKN-45 tumor cells with the combination of real-time, automated analysis of tumor cell number.
MKN-45 (stomach tumor cell line, DSMZ Germany) were used as they present a very high expression of CEACAM5 (Antigen Binding Capacity ≈3.10E5 receptors per cell). To count living MKN-45 cells in real time without altering their function, MKN45 cells have been stained thanks to a lentiviral-based labeling reagent enabling expression of a nuclear-restricted red (Nuclight Red) fluorescent protein. […]
The plates were then placed in the Incucyte® live-cell analysis apparatus. The Incucyte® Cell-by-Cell Analysis module was used to quantify the number of NucLight red-labelled MKN-45 tumor cells over-time. […]

On to CEACAM5_Tusamitamab-PEG24-R848, for which the “% of Immune cell-mediated killing activity” value amounted to 57%.
